Assay results as given in EP0085842A1, “Antimycosic agents” (BAYER AG, priority 1982, dated 1983).
In brackets after ≈: the same amount, converted by molar mass.

Columns and labels:
Trichophyton mentagr. = assay: Antimycotic in-vitro activity, serial dilution test (MIC); format: cell-based, Trichophyton mentagrophytes; conditions: Sabouraud's milieu d'epreuve, 20°C, 96 h, inoculum 5 x 10^4 Keime/ml, read-out: MHK-Werte in γ/ml Nährmedium Trichophyton mentagr.
Method: (§1) Versuchsbeschreibung: • Die in-vitro-Prüfungen wurden im Reihenverdünnungstest mit Keiminokula von durchschnittlich 5 x 10^4 Keimen/ml Substrat durchgeführt. Als Nährmedium dienten • a) für Dermatophyten und Schimmelpilze: Sabouraud's milieu d'epreuve • b) für Hefen: • Fleischextrakt-Traubenzucker-Bouillon.
(§2) Die Bebrütungstemperatur betrug 20°C, die Bebrütungsdauer lag bei 24 bis 96 Stunden bei Hefen und 96 Stunden bei Dermatophyten und Schimmelpilzen.

Torulopsis glabrata = assay: as above; format: cell-based; conditions: Nakaseomyces glabratus; Fleischextrakt-Traubenzucker-Bouillon, 20°C, 24 to 96 h, inoculum 5 x 10^4 Keime/ml; read-out: MHK-Werte in γ/ml Nährmedium Torulopsis glabrata
Method: as §1, §2

Aspergillus fumigatus = assay: as above; format: cell-based; conditions: Sabouraud's milieu d'epreuve, 20°C, 96 h, inoculum 5 x 10^4 Keime/ml, read-out: MHK-Werte in γ/ml Nährmedium Aspergillus fumigatus
Method: as §1, §2

Candida albicans = assay: as above; format: cell-based; conditions: Fleischextrakt-Traubenzucker-Bouillon, 20°C, 24 to 96 h, inoculum 5 x 10^4 Keime/ml, read-out: MHK-Werte in γ/ml Nährmedium Candida albicans
Method: as §1, §2

Microsporum canis = assay: as above; format: cell-based; conditions: Sabouraud's milieu d'epreuve, 20°C, 96 h, inoculum 5 x 10^4 Keime/ml, read-out: MHK-Werte in γ/ml Nährmedium Microsporum canis
Method: as §1, §2

[1] = tested on: Trichophyton mentagrophytes; assay: Antimycotic in-vivo activity (local) in experimental guinea pig trichophytosis; set-up: species or system Meerschweinchen; key: +++++: sehr gute Wirkung = keine Infektionszeichen am 12.-15.Tag p.i.; ++++: gute Wirkung = geringe Rötung, vereinzelt Schuppen; +++: Wirkung = Rötung, Schuppung, ohne Haarausfall; ++: schwache Wirkung = Rötung, Schuppung, Haarausfall; +: Spur Wirkung = flächiger Haarausfall, entzündliche Hautreaktion
Candida-Zellen = assay: Antimycotic in-vivo activity (oral) in mouse candidosis; set-up: species or system Mäuse vom Typ SPF-CF1; key to Wirkung: +++++: sehr gute Wirkung = 90 % Überlebende am 6.Tag p.i.; ++++: gute Wirkung = 80 % Überlebende am 6.Tag p.i.; +++: Wirkung = 60 % Überlebende am 6.Tag p.i.; ++: schwache Wirkung = 40 % Überlebende am 6.Tag p.i.; +: Spur Wirkung = unter 40 % Überlebende am 6.Tag p.i.; k.W.: keine Wirkung; conditions: for Wirkung: mice infected i.v. with Candida, oral 50 - 100 mg/kg one hour before and seven hours after infection, survivors on day 6 p.i.; for Wirkung compared with known compounds (A), (B), (C) and (D): mouse candidosis, oral 50 - 100 mg/kg
Method: Mäuse vom Typ SPF-CF1 wurden intravenös mit 1 - 2 x 10^6 logarithmisch wachsenden Candida-Zellen, die in physiologischer Kochsalzlösung suspendiert werden, infiziert. Eine Stunde vor und sieben Sunden nach der Infektion werden die Tiere mit jeweils 50 - 100 mg/kg Körpergewicht der Präparate oral behandelt.
Unbehandelte Tiere starben 3 bis 6 Tage post infektionem. Die Überlebensrate am 6. Tag post infektionem betrug bei unbehandelten Kontrolltieren etwa 5 %.
+++++ = sehr gute Wirkung = 90 % Überlebende am 6.Tag p.i. ++++ = gute Wirkung = 80 % Überlebende am 6.Tag p.i. +++ = Wirkung = 60 % Überlebende am 6.Tag p.i. ++ = schwache Wirkung = 40 % Überlebende am 6.Tag p.i. + = Spur Wirkung = unter 40 % Überlebende am 6.Tag p.i. k.W. = keine Wirkung

[2] = local treatment, trichophytosis model
[3] = local, 1 x daily from day 3 p.i., 15 %ige Lösung in Dimethylsulfoxid:Glycerin = 1:4, infection signs day 12-15 p.i.

| Structure (SMILES) | MIC (Trichophyton mentagr.) [µg/mL] | MIC (Torulopsis glabrata) [µg/mL] | MIC (Aspergillus fumigatus) [µg/mL] | MIC (Candida albicans) [µg/mL] | MIC (Microsporum canis) [µg/mL] | Wirkung [1, 2] | Wirkung [1, 3] | Wirkung (Candida-Zellen) | Wirkung compared with known compounds (A), (B), (C) and (D) (Candida-Zellen) |
| --- | --- | --- | --- | --- | --- | --- | --- | --- | --- |
| CC(C)(COc1ccc(Cl)cc1)C(O)(COc1ccc(Cl)cc1)Cn1cncn1 (stereo not drawn) [Beispiel 19] | < 1 | 2 (≈ 4.58 µM) | < 1 | 8 (≈ 18.3 µM) | 2 (≈ 4.58 µM) |  |  |  |  |
| CC(CF)(CF)C(O)(CCc1ccc(Cl)cc1Cl)Cn1cncn1 (stereo not drawn) [Beispiel 27] | < 1 | 4 (≈ 10.6 µM) | 2 (≈ 5.29 µM) | 2 (≈ 5.29 µM) | 2 (≈ 5.29 µM) | Wirkung bis gute Wirkung | +++ | +++ (Wirkung = 60 % Überlebende am 6.Tag p.i.) | bessere Wirkung |
| Cc1ccccc1CCC(O)(Cn1ccnc1)C(C)(C)C (stereo not drawn) [(D), reference compound] | 8 (≈ 27.9 µM) | 16 (≈ 55.9 µM) | 64 (≈ 223 µM) | 2 (≈ 6.98 µM) | 16 (≈ 55.9 µM) |  |  | k.W. |  |
| CC(C)(C)C(O)(COc1ccc(Cl)cc1)Cn1ccnc1 (stereo not drawn) [(A), reference compound] | 8 (≈ 25.9 µM) | 2 (≈ 6.48 µM) | 32 (≈ 104 µM) | < 1 | 16 (≈ 51.8 µM) |  |  | k.W. |  |
| CCOCC(C)(C)C(O)(COc1ccc(Cl)cc1)Cn1cncn1 (stereo not drawn) [Beispiel 18] | < 1 | 4 (≈ 11.3 µM) | 4 (≈ 11.3 µM) | < 1 | 4 (≈ 11.3 µM) |  |  |  |  |
| COCC(C)(C)C(O)(COc1ccc(Cl)cc1Cl)Cn1cncn1 (stereo not drawn) [Beispiel 16] | < 1 | 2 (≈ 5.34 µM) | 8 (≈ 21.4 µM) | < 1 | 2 (≈ 5.34 µM) |  |  |  |  |
| CC(CF)(CF)C(O)(COc1ccc(Cl)cc1)Cn1ccnc1 (stereo not drawn) [Beispiel 31] |  |  |  |  |  | Wirkung bis gute Wirkung | +++ | ++++ (gute Wirkung = 80 % Überlebende am 6.Tag p.i.) | bessere Wirkung |
| C=CC(C)(C)C(O)(COc1ccc(F)cc1)Cn1ccnc1 (stereo not drawn) [Beispiel 40] |  |  |  |  |  |  |  | ++ (schwache Wirkung = 40 % Überlebende am 6.Tag p.i.) | bessere Wirkung |
| C=CC(C)(C)C(O)(COc1ccc(F)cc1)Cn1cncn1 (stereo not drawn) [Beispiel 24] | < 1 | 8 (≈ 26.2 µM) | 4 (≈ 13.1 µM) | 4 (≈ 13.1 µM) | 8 (≈ 26.2 µM) |  |  | ++ (schwache Wirkung = 40 % Überlebende am 6.Tag p.i.) | bessere Wirkung |
| COCC(C)(C)C(O)(COc1ccc(Cl)cc1C)Cn1cncn1 (stereo not drawn) [Beispiel 17] | < 1 | 4 (≈ 11.3 µM) | 4 (≈ 11.3 µM) | < 1 | < 1 |  |  |  |  |
| C=CC(C)(C)C(O)(COc1ccc(Cl)cc1Cl)Cn1ccnc1 (stereo not drawn) [Beispiel 39] | < 1 | < 1 | 32 (≈ 90.1 µM) | 2 (≈ 5.63 µM) | 16 (≈ 45 µM) |  |  | ++ (schwache Wirkung = 40 % Überlebende am 6.Tag p.i.) | bessere Wirkung |
| CC(CF)(CF)C(O)(CCc1ccc(Cl)cc1Cl)Cn1ccnc1 (stereo not drawn) [Beispiel 36] | 2 (≈ 5.3 µM) | 4 (≈ 10.6 µM) | 8 (≈ 21.2 µM) | < 1 | 4 (≈ 10.6 µM) |  |  | ++++ (gute Wirkung = 80 % Überlebende am 6.Tag p.i.) | bessere Wirkung |
| CC(C)(Oc1ccc(Cl)cc1Cl)C(O)(CCc1ccc(Cl)cc1)Cn1cncn1 (stereo not drawn) [Beispiel 30] | < 1 | 8 (≈ 17.6 µM) | 4 (≈ 8.8 µM) | 16 (≈ 35.2 µM) | 64 (≈ 141 µM) |  |  |  |  |
| COCC(C)(C)C(O)(COc1ccc(Cl)cc1)Cn1cncn1 (stereo not drawn) [Beispiel 2] | 2 (≈ 5.89 µM) | 8 (≈ 23.5 µM) | 8 (≈ 23.5 µM) | < 1 | 4 (≈ 11.8 µM) |  |  |  |  |
